# Several values for one entry are separate records, joined by “and”; a condition that tells them apart may be missing. Identical values can stand only once.
# How the values were obtained:
# [1] = tested on: 3D7, SLI- and CR- WT, N309K, N330K parasites; experiment: Parasite growth over 72 h in the presence of GlcN (LDH); assay type: cell-based, Plasmodium falciparum; conditions: for Growth over 72 h, 0.25 mM / 0 mM / Growth over 72 h, 2.5 mM / 0 mM: biological replicates 1-4; for Growth over 72 h (mean of raw readings) / Growth over 72 h normalised to 0 mM GlcN (= 100): biological replicates 1-3; for Growth over 72 h (raw reading): biological replicates 1-3, DMSO data of M833 and W991 sets
# Protocol: thereafter called SLI-WT, SLI-N309K and SLI-N330K). gDNA was extracted and a PCR was conducted to check for correct integration using primers START_5’UTR.F and START_Seq.R (Table S2); the same PCR on 3D7 gDNA was used as a control, as no bands should be observed in the 3D7 samples. (B) The sequencing of the PCR […]
# and that SLI-N309K and SLI-N330K contain the correct mutations. (C) Growth of 3D7, SLI-WT, -N309K or -N330K over 72 h in the presence of 0, 0.25 or 2.5 mM GlcN was measured with an LDH assay. Growth was normalised to the 0 mM GlcN condition. n=4 biological replicates. Ordinary one-way ANOVA with Dunnett’s multiple comparison test (comparison to the 0 mM condition). **: p<0.005. ***: p<0.0005. ****: p<0.0001. (D) Similar to SLI parasites, CRISPR transfectant parasites were cloned:
# CR-WT clone D2, CR-N309K clone C10 and CR-N330K clone B2, thereafter called CR-WT, CR-N309K and CR-N330K. A PCR was conducted to check for correct integration using primers START_5’UTR.F and START_IntR1; 3D7 gDNA was used […]
# wild-type version of pfstart1, and that CR-N309K and CR-N330K contain the correct mutations. (F) Growth of 3D7, CR-WT, -N309K or -N330K over 72 h in the presence of 0, 0.25 or 2.5 mM GlcN was measured by LDH assay (same as (C); n=6 biological replicates). Source data are provided as a Source Data file. […]
# and compound 4. Note that M-833 was first purchased from MolPort (MolPort -002-267-916) then made in-house at WEHI: the differences observed in EC50s across experiments are attributed to the different batches of M -833. For some experiments, 0, 0.25 or 2.5 mM of glucosamine (GlcN) was also added. Experiments were set up in technical duplicates or triplicates. Following a freeze -thaw cycle, lactate dehydrogenase (LDH) activity was assessed as an indicator of parasite growt h 5. 30 μL of parasite culture was incubated for 30 min in the dark with 75 μL Malstat mixture (0.1 M Tris pH 9.0, 20 g/L lactic acid, pH 7.5, 0.2% Triton-X100, 0.5 g/L acetylpyridine adenine dinucleotide (APAD, Sigma), 200 μg/mL nitroblue tetrazolium (NBT; Sigma), 1 μg/mL phenozine ethosulfate (PES; Sigma)). Absorbance was then measured at 650 nm, transformed using the formula below, plotted against the logarithm of the concentrations, and a non-linear regression (log(inhibitor) vs. response, variable slope) was calculated using GraphPad Prism to assess the half-inhibitory […]
# Growth inhibition % = (1 − average(sample)− average(uRBC)) ∗ 100 […]
# The DMSO samples were also used to assess growth of parasite in the presence of 0.25 and 2.5 mM GlcN (normalised by DMSO in 0 mM GlcN). […]
# [2] = tested on: P. falciparum oocysts in mosquito midguts; experiment: Standard membrane feeding assay: oocysts in mosquito midguts (Walter and Eliza Hall Institute); assay type: in vivo, Plasmodium falciparum; conditions: for Oocyst counts from individual mosquitoes: 30 mosquitoes dissected
# Protocol: These assays were performed at the Walter and Eliza Hall Institute and at the London School of Hygiene and Tropical Medicine using slightly different approaches which are described in the Supplementary Information. […]
# were aspirated into a cup and anesthetized by cooling to 4 °C until immobilized and kept on ice for the dissection. The mosquitoes were then dissected as previously described 12 and collected midguts were maintained in 1X PBS (Gibco) until they were stained with mercurochrome for 20 mins. […]
# [3] = CR-N309K parasites, 0.25 mM GlcN
# [4] = CR-N309K parasites, 2.5 mM GlcN
# [5] = CR-N330K parasites, 0.25 mM GlcN
# [6] = CR-N330K parasites, 2.5 mM GlcN
smiles,measurement,setting,value
"N[C@H]1C(O)O[C@H](CO)[C@@H](O)[C@@H]1O (stereo partly shown) [GlcN, glucosamine]","Growth over 72 h, 0.25 mM / 0 mM","[1]; 3D7, 0.25 mM GlcN",98.6386 and 100.075 and 99.6504 and 92.7264
same,"Growth over 72 h, 2.5 mM / 0 mM","[1]; 3D7, 2.5 mM GlcN",77.3282 and 91.4546 and 81.2488 and 87.4334
same,reduced growth,"[1]; 3D7, 2.5 mM GlcN, 72 h",~ 5%
same,Growth over 72 h (mean of raw readings),"[1]; 3D7 parasites, 0.25 mM GlcN",0.1623 and 0.1668 and 0.4453 and 0.6687 and 0.4936 and 0.5657
same,Growth over 72 h normalised to 0 mM GlcN (= 100),"[1]; 3D7 parasites, 0.25 mM GlcN",99.2357 and 96.4441 and 83.2336 and 124.534 and 89.0493 and 116.399
same,Growth over 72 h (raw reading),"[1]; 3D7 parasites, 0.25 mM GlcN",0.1683 and 0.1751 and 0.4506 and 0.6702 and 0.5044 and 0.558 and 0.1563 and 0.1585 and 0.44 and 0.6673 and 0.4828 and 0.5734
same,Growth over 72 h (mean of raw readings),"[1]; 3D7 parasites, 2.5 mM GlcN",0.1303 and 0.133 and 0.3936 and 0.3428 and 0.669 and 0.5661
same,Growth over 72 h normalised to 0 mM GlcN (= 100),"[1]; 3D7 parasites, 2.5 mM GlcN",79.6393 and 76.9008 and 73.5607 and 61.8528 and 124.572 and 116.481
same,Growth over 72 h (raw reading),"[1]; 3D7 parasites, 2.5 mM GlcN",0.137 and 0.138 and 0.4268 and 0.3683 and 0.6835 and 0.563 and 0.1235 and 0.128 and 0.3603 and 0.3174 and 0.6544 and 0.5692
same,Growth over 72 h (mean of raw readings),[1]; [3],0.127 and 0.1406 and 0.5399 and 0.6825 and 0.5806 and 0.5768
same,Growth over 72 h normalised to 0 mM GlcN (= 100),[1]; [3],83.6627 and 84.6177 and 96.1271 and 111.164 and 88.2706 and 96.8194
same,Growth over 72 h (raw reading),[1]; [3],0.13 and 0.1405 and 0.5297 and 0.694 and 0.5709 and 0.5788 and 0.124 and 0.1406 and 0.55 and 0.6711 and 0.5903 and 0.5749
same,Growth over 72 h (mean of raw readings),[1]; [4],0.0842 and 0.08195 and 0.3029 and 0.2482 and 0.3611 and 0.3044
same,Growth over 72 h normalised to 0 mM GlcN (= 100),[1]; [4],55.4677 and 49.3377 and 53.9263 and 37.7271 and 58.8111 and 51.0826
same,Growth over 72 h (raw reading),[1]; [4],0.0834 (2×) and 0.3049 and 0.2428 and 0.3713 and 0.3087 and 0.085 and 0.0805 and 0.3008 and 0.2535 and 0.3509 and 0.3
same,growth less than in the absence of GlcN,"[1]; CR-N309K, 2.5 mM GlcN, 72 h",50%
same,Growth over 72 h (mean of raw readings),[1]; [5],0.2349 and 0.2489 and 0.3654 and 0.7776 and 0.3572 and 0.7298
same,Growth over 72 h normalised to 0 mM GlcN (= 100),[1]; [5],94.757 and 83.1329 and 83.9922 and 102.755 and 71.8539 and 97.5734
same,Growth over 72 h (raw reading),[1]; [5],0.2498 and 0.2614 and 0.3895 and 0.7636 and 0.4102 and 0.7252 and 0.2201 and 0.2364 and 0.3414 and 0.7917 and 0.3041 and 0.7344
same,Growth over 72 h (mean of raw readings),[1]; [6],0.1315 and 0.1328 and 0.1893 and 0.172 and 0.7048 and 0.6593
same,Growth over 72 h normalised to 0 mM GlcN (= 100),[1]; [6],53.0349 and 44.3554 and 43.5072 and 34.6042 and 93.1356 and 88.1543
same,Growth over 72 h (raw reading),[1]; [6],0.1385 and 0.1375 and 0.1953 and 0.1767 and 0.7177 and 0.6721 and 0.1245 and 0.1281 and 0.1833 and 0.1673 and 0.692 and 0.6466
same,Growth over 72 h (mean of raw readings),"[1]; CR-WT parasites, 0.25 mM GlcN",0.2131 and 0.2403 and 0.4884 and 0.5805 and 0.5445 and 0.4768
same,Growth over 72 h normalised to 0 mM GlcN (= 100),"[1]; CR-WT parasites, 0.25 mM GlcN",94.7322 and 91.6651 and 102.262 and 415.2 and 101.567 and 345.382
same,Growth over 72 h (raw reading),"[1]; CR-WT parasites, 0.25 mM GlcN",0.2167 and 0.241 and 0.4948 and 0.5777 and 0.5446 and 0.4838 and 0.2095 and 0.2396 and 0.4819 and 0.5832 and 0.5444 and 0.4698
same,Growth over 72 h (mean of raw readings),"[1]; CR-WT parasites, 2.5 mM GlcN",0.1497 and 0.1625 and 0.3987 and 0.36 and 0.5094 and 0.4461
same,Growth over 72 h normalised to 0 mM GlcN (= 100),"[1]; CR-WT parasites, 2.5 mM GlcN",66.5703 and 61.9874 and 83.4991 and 67.1517 and 364.413 and 323.18
same,Growth over 72 h (raw reading),"[1]; CR-WT parasites, 2.5 mM GlcN",0.1508 and 0.1623 and 0.3842 and 0.3527 and 0.5062 and 0.4479 and 0.1487 and 0.1627 and 0.4133 and 0.3673 and 0.5127 and 0.4444
same,"Growth over 72 h, 0.25 mM / 0 mM","[1]; SLI-N309K, 0.25 mM GlcN",84.2717 and 93.806 and 99.7943 and 79.4202
same,"Growth over 72 h, 2.5 mM / 0 mM","[1]; SLI-N309K, 2.5 mM GlcN",52.5042 and 74.3497 and 80.6954 and 57.9574
same,"Growth over 72 h, 0.25 mM / 0 mM","[1]; SLI-N330K, 0.25 mM GlcN",88.793 and 84.0431 and 73.2682 and 86.1624
same,"Growth over 72 h, 2.5 mM / 0 mM","[1]; SLI-N330K, 2.5 mM GlcN",52.5716 and 59.0221 and 51.4095 and 62.9405
same,"Growth over 72 h, 0.25 mM / 0 mM","[1]; SLI-WT, 0.25 mM GlcN",108.267 and 89.5536 and 80.5452 and 87.3943
same,"Growth over 72 h, 2.5 mM / 0 mM","[1]; SLI-WT, 2.5 mM GlcN",78.3352 and 62.7379 and 46.4436 and 59.8798
same,growth less than in the absence of GlcN,"[1]; most SLI- and CR- lines, 2.5 mM GlcN, 72 h",approximately 40%
CC(C)(Nc1ccc(Cl)c(S(=O)(=O)N2CCOCC2)c1)C(=O)Nc1ccc(F)c(Cl)c1 [W-991],reduction of the number of oocysts compared to untreated control,"[2]; 100 nM W-991, oocysts counted 7 days after feeding",> 20 fold
same,Oocyst counts from individual mosquitoes,[2]; W-991 1 nM,38 and 56 and 49 and 30 and 0 and 4 and 7 and 9 and 6 and 8 and 12 and 35 and 22 and 20 and 13 and 50 and 15 and 10 and 31 and 18 and 11 and 24 and 1
same,Oocyst counts from individual mosquitoes,[2]; W-991 50 nM,9 and 3 and 23 and 27 and 20 and 4 and 12 and 0 and 7 and 10 and 2 and 31 and 22 and 1 and 17
same,Oocyst counts from individual mosquitoes,[2]; W-991 100 nM,6 and 0 and 2 and 16 and 24 and 8 and 11 and 5 and 1 and 7 and 12
same,oocysts per mosquito,"[2]; W-991 1, 50, 100 nM, day 7 after feeding",dose-dependent decrease in oocysts per mosquito
